Calls of active or inactive are those of the source. The rule behind the calls is not given here.

This assay has as its system HCT116 viability, CellTiter-Glo ATP luminescence. Briefly: cytotoxicity toward HCT116 cells – cell-based, CellTiter-Glo luminescence, IC50, dose response (AID 1117332).
For orientation: IC50 means the point on the concentration scale where inhibition reaches its midpoint. For the molecule `CCCCCCCCCCCCCC[N+](C)(C)C`, the IC50 is 2290 nM. Take `O=C1[O][Bi][O]c2ccccc21`: the IC50 is > 20000 nM (inactive). In the case of `CC(=O)[O][Hg][c]1ccccc1` it was 2800 nM; in that of `O=C(O)C1(C(=O)O)CCC1.[NH2-].[NH2-].[Pt+2]`, > 20000 nM (inactive); in that of `OCCN1CCN(CC/C=C2/c3ccccc3Sc3ccc(C(F)(F)F)cc32)CC1`, 4580 nM. Then `Cc1ccc([N+](=O)[O-])[c]2c1[O][Hg]2`, with 2830 nM.

Values taken from PubChem BioAssay AID1117332.
